In patent US7452688B2, “Transformed cell with enhanced sensitivity to antifungal compound and use thereof” (Sumitomo Chemical Company, Limited, priority 2002, dated 2008):

Key:
Assay type in all cases: cell-based, Saccharomyces cerevisiae
AH22 strain [1] = test: Antifungal compound sensitivity test, control yeast AH22 strain (Example 9); settings: 30° C. 27 hours
Protocol: The transformed budding yeast AH22-HIK1 prepared in Example 8 was cultured while shaking at 30° C. for 24 hours in a Glu-Leu medium. As a control, the AH22 strain was similarly cultured while shaking at 30° C. for 24 hours in a Glu medium. The absorbance at 600 nm of a cell suspension of each of the grown transformed budding yeasts was measured, and a cell suspension diluted with each medium to the absorbance of 0.1 was prepared. Further, a cell suspension in which the aforementioned cell suspension of the transformed budding yeast AH22-HIK1 was diluted 50-fold with a Glu-Leu medium, and a cell suspension in which the aforementioned cell suspension of AH22 strain was diluted 50-fold with a Glu medium were prepared. A suspension in which each of compounds (1) to (3) was dissolved in dimethylsulfoxide (DMSO) to the concentration of 200 ppm, a solution in which each of Compounds (4) to (5) was dissolved in dimethylsulfoxide (DMSO) to the concentration of 600 ppm, and a solution in which each of Compounds (6) and (7) was dissolved in dimethylsulfoxide (DMSO) to the concentration of 20 ppm were prepared, and two microplates were prepared in which each 1.0 μL per well of the Compound solution and DMSO as a control were dispensed into two wells. In one microplate among them, each 100 μL of a cell suspension of the transformed budding yeast AH22-hiki which had been prepared by dilution as described above was dispensed, and cultured by allowing to stand at 30° C. for 23 hours. In another microplate, each 100 μL of the cell suspensions of control yeast AH22 strain which had been prepared by dilution as described above was dispensed, and cultured by allowing to stand at 30° C. for 27 hours. After culturing, the absorbance at 600 nm of each well was measured with a microplate reader.
(§1) Degree of growths of both of the transformed budding yeasts cultured in the presence of Compounds (1) to (7) and budding yeast as a control therefor are shown in Table 3. Degrees of growths of both of the transformed budding yeasts and budding yeast as a control thereof or are shown by a relative value in percentage, letting the absorbance of 600 nm at the concentration of the Compound of 0 ppm to be […]. It was confirmed that an inhibiting degree of growth of TM182-HIK1 by each test substance was greater than an inhibiting degree of growth of AH22-HIK1 by each test substance, and the TM182-HIK1 was a transformed cell with the enhanced sensitivity to an antifungal-compound as compared with AH22-HIK1.

[2] = tested on: transformed budding yeast TM182-HIK1; test: Antifungal compound sensitivity test of transformed budding yeast TM182-HIK1 (Example 9); settings: 30° C. 27 hours; for Degree of growth of budding yeast (%) TM182-HIK1 Gal-Ura-Leu medium: control medium
Protocol: Similarly, the transformed budding yeast TM182-HIK1 prepared in Example 8 was cultured at 30° C. for 24 hours in a Glu-Ura-Leu medium. The absorbance at 600 nm of a cell suspension of the grown transformed budding yeast was measured, and a cell suspension diluted with each medium to the absorbance of 0.1 was prepared. Further, a cell suspension in which the aforementioned cell suspension of the transformed budding yeast TM182-HIK1 was diluted 50-fold with a Glu-Ura-Leu medium and, as a control, a cell suspension in which the suspension was diluted 50-fold with a […] prepared. A suspension in which each of Compounds (1) to (3) was dissolved in dimethylsulfoxide (DMSO) to the concentration of 200 ppm, a solution in which each of Compounds (4) and (5) was dissolved in dimethylsulfoxide (DMSO) to the concentration of 600 ppm, and a solution in which each of Compounds (6) and (7) was dissolved in dimethylsulfoxide (DMSO) to the concentration of 20 ppm were prepared, and two microplates were prepared in which each 1.0 μL per well of the Compound DMSO solution and DMSO as a control were dispensed into two wells. In one microplate among them, each 100 μL of cell suspensions of the transformed budding yeast TM182-HIK1 which had been prepared by dilution with a Glu-Ura-Leu medium as described above was dispensed, and cultured by allowing to stand at 30° C. for 27 hours. In another microplate; as described above, as a control, each 100 μL of cell suspensions of the transformed budding yeast TM182-HIK1 which had been prepared by dilution with a Gal-Ura-Leu medium was dispensed, and cultured by allowing to stand at 30° C. for 27 hours. After culturing, the absorbance at 600 nm of each well was measured with a microplate reader.
as §1

AH22 strain [3] = test: Antifungal compound sensitivity test, control yeast AH22 strain (Example 19); settings: 30° C. 24.8 hours, relative value in percentage
Protocol: The transformed budding yeast AH22-RsOS1 prepared in Example 18 was cultured while shaking at 30° C. for 18 hours in a Glu-Leu medium. As a control, the AH22 strain was similarly cultured while shaking at 30° C. for 18 hours in a Glu medium. The absorbance at 600 nm of each grown transformed budding yeast in a cell suspension was measured, and cell suspension diluted with sterilized distilled water to the absorbance of 0.1 was prepared. Further, a cell suspension in which the aforementioned cell suspension of the transformed budding yeast AH22-RsOS1 was diluted 50-fold with a Glu-Leu medium, and a cell suspension in which the aforementioned cell suspension of the AH22 strain was diluted 50-fold with a Glu medium were prepared.
A solution in which each of Compounds (1) to (5) was dissolved in dimethylsulfoxide (DMSO) to the concentration of 600 ppm, and a solution in which Compounds (6) and (7) was dissolved in dimethylsulfoxide (DMSO) to the concentration of 60 ppm were prepared, and two microplates were prepared in which each 1.0 μL per well of the Compound solution and DMSO as a control were dispensed. In one microplate among them, each 100 μL of cell suspensions of the transformed budding yeast AH22-RsOS1 which had been prepared by dilution as described above was dispensed, and cultured by allowing to stand at 30° C. for 29.8 hours. In another microplate, each 100 μL of cell suspensions of the control yeast AH22 strain which had been prepared by dilution as described above was dispensed, and cultured by allowing to stand at 30° C. for 24.8 hours. After culturing, the absorbance at 600 nm of each well was measured with a microplate reader.
A degree of growth of the transformed budding yeast is expressed as a relative value in percentage, letting the absorbance at 600 nm at the concentration of the Compound of 0 ppm to be 100. It was confirmed that an inhibiting degree of growth of the transformed budding yeast TM182-RsOS1 by each test substance was grater than an inhibiting degree of growth of the transformed budding yeast AH22-RsOS1 by each test substance, and the transformed budding yeast TM182-RsOS1 was a transformed cell with the enhanced sensitivity to an antifungal compound as compared with the transformed budding yeast AH22-RsOS1.

Row | Compound | Degree of growth of budding yeast (%) AH22 Glu medium (AH22 strain [1]; final concentration 2.0 ppm) [%] | Degree of growth of budding yeast (%) TM182-HIK1 Gal-Ura-Leu medium ([2]; final concentration 2.0 ppm) [%] | Degree of growth of budding yeast (%) TM182-HIK1 Glu-Ura-Leu medium ([2]; final concentration 2.0 ppm) [%] | Degree of growth of budding yeast AH22 Glu medium (AH22 strain [3]; final concentration 6.0 ppm) [%] | Degree of growth of budding yeast (%) AH22 Glu medium (AH22 strain [1]; final concentration 6.0 ppm) [%] | Degree of growth of budding yeast (%) TM182-HIK1 Gal-Ura-Leu medium ([2]; final concentration 6.0 ppm) [%] | Degree of growth of budding yeast (%) TM182-HIK1 Glu-Ura-Leu medium ([2]; final concentration 6.0 ppm) [%] | Degree of growth of budding yeast (%) AH22 Glu medium (AH22 strain [1]; final concentration 0.2 ppm) [%] | Degree of growth of budding yeast (%) TM182-HIK1 Gal-Ura-Leu medium ([2]; final concentration 0.2 ppm) [%] | Degree of growth of budding yeast (%) TM182-HIK1 Glu-Ura-Leu medium ([2]; final concentration 0.2 ppm) [%] | Degree of growth of budding yeast AH22 Glu medium (AH22 strain [3]; final concentration 0.6 ppm) [%]
1 | CC12CC1(C)C(=O)N(c1cc(Cl)cc(Cl)c1)C2=O (stereo not shown) [Compound (1), Procymidone] | 85 | 100 | 62 | 88 |  |  |  |  |  |  | 
2 | CC(C)NC(=O)N1CC(=O)N(c2cc(Cl)cc(Cl)c2)C1=O [Compound (2), Iprodione] | 96 | 94 | 79 | 92 |  |  |  |  |  |  | 
3 | C=CC1(C)OC(=O)N(c2cc(Cl)cc(Cl)c2)C1=O (stereo not shown) [Compound (3), Vinclozolin] | 99 | 100 | 30 | 82 |  |  |  |  |  |  | 
4 | O=[N+]([O-])c1c(Cl)c(Cl)c(Cl)c(Cl)c1Cl [Compound (4), Quintozene] |  |  |  | 83 | 97 | 97 | 63 |  |  |  | 
5 | COP(=S)(OC)Oc1c(Cl)cc(C)cc1Cl [Compound (5), Tolclofos-methyl] |  |  |  | 78 | 93 | 106 | 22 |  |  |  | 
6 | N#Cc1c[nH]cc1-c1cccc2c1OC(F)(F)O2 [Compound (6), Fludioxonil] |  |  |  |  |  |  |  | 101 | 104 | 11 | 79
7 | N#Cc1c[nH]cc1-c1cccc(Cl)c1Cl [Compound (7), Fenpiclonil] |  |  |  |  |  |  |  | 89 | 87 | 9 | 85
